Results published in the METLIN SMRT retention time set (Domingo-Almenara et al. 2019).

Assay: gradient 5% acetonitrile 3 min, to 50% in 2 min, to 85% in 15 min, held 3 min, 100 µL/min
Settings: column: Zorbax Extend-C18 2.1 x 50 mm; eluents: water / acetonitrile, 0.1% formic acid
Summary of the method: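 A Zorbax Extend-C18 column (2.1 × 50 mm, 1.8 μm) run at 100 μL/min with water and acetonitrile, both containing 0.1% formic acid, separated mixtures of ~100 pure standards. The HPLC was coupled to a quadrupole time-of-flight mass spectrometer operated in positive and negative ionization mode, with dead and dwell volumes of 40 μL and 900 μL. Each retention time was taken from a computationally picked adduct peak that was then manually inspected.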

CCOC(=O)O[C@]1(C(=O)OCCl)CC[C@H]2[C@@H]3CCC4=CC(=O)C=C[C@]4(C)[C@H]3[C@@H](O)C[C@@]21C
RP-LC retention time: 1150 s

COc1ccccc1C1=NS(=O)(=O)c2cc(S(=O)(=O)N3CCOCC3)ccc2N1
RP-LC retention time: 718 s

O=C(Cn1nc2n(c1=O)CCCC2)NCCc1ccc(Cl)cc1
RP-LC retention time: 678 s

CCc1ccc(NC(=O)CSc2nccc(N3CCN(c4cc(C)ccc4C)CC3)n2)cc1
RP-LC retention time: 995 s

COc1ccc(NC(=O)c2cnc(N3CCC4(CC3)OCCO4)nc2N)cc1
RP-LC retention time: 635 s

Cc1ccc(Cl)cc1NC(=O)Cc1c(C)nn(-c2nc(-c3ccccc3)cs2)c1C
RP-LC retention time: 1230 s

O=C(CCC1CCCC1)Nc1c2c(nn1-c1cccc(Cl)c1)CS(=O)C2 (stereo not drawn)
RP-LC retention time: 746 s

COc1ccc(-c2cn3c(CC(=O)Nc4ccccc4Cl)csc3n2)cc1OC
RP-LC retention time: 728 s

Cc1ccc(NC(=O)N2CCC(n3cnc4c(Cl)cccc4c3=O)CC2)cc1C
RP-LC retention time: 877 s

COc1ccc(S(=O)(=O)N2CCc3nc(-c4ccc(Cl)cc4)ncc3C2)cc1
RP-LC retention time: 1100 s

O=C(Nc1ccccc1Br)N[C@@H]1CCN(c2ccc(C(F)(F)F)cn2)C1
RP-LC retention time: 937 s

COc1cccc(CN2C[C@@H]3C(=O)N(CCN4CCc5ccccc5C4)C(=O)[C@@H]3C2)c1
RP-LC retention time: 590 s

Cc1cc(C)cc(NC(=O)N2CCc3cn(C)c4cccc(c34)C2)c1
RP-LC retention time: 1050 s

O=C(NCc1ccc2c(c1)OCO2)c1ccc2ncnc(N3CCOCC3)c2c1
RP-LC retention time: 605 s

CC(C)c1c(C2CCN(C(=O)c3ccoc3)CC2)noc1N
RP-LC retention time: 674 s

Cc1ccc(Cl)cc1NC(=O)Cn1cnc2c(sc3nc(-c4ccccc4)ccc32)c1=O
RP-LC retention time: 1070 s

Cc1ccc(-c2nc(-c3ccnc(N4CCOCC4)c3)no2)cc1F
RP-LC retention time: 1100 s

COc1ccc(-c2noc(CN3C(=O)COc4ccccc43)n2)cc1OC
RP-LC retention time: 882 s

Cc1nc(-c2noc(-c3cccc(F)c3)n2)cn1CC(=O)Nc1ccccc1
RP-LC retention time: 856 s

O=C(CC1CCN(C(=O)Nc2ccc(F)cc2)CC1)N1CCCCC1
RP-LC retention time: 740 s

Cc1ccc(C2NC(=O)N(CC(=O)Nc3ccccc3F)C3=C2C(=O)OC3)cc1 (stereo not drawn)
RP-LC retention time: 786 s

Cc1noc(-c2nn(C)c3c2CN(C(=O)C2(c4ccccc4)CC2)CC3)n1
RP-LC retention time: 757 s

O=C(NCCc1csc(-c2ccccc2)n1)C1CCN(C(=O)c2ccco2)CC1
RP-LC retention time: 749 s

Cc1ccc2oc(=O)n(Cc3noc(C(=O)NCC(C)c4ccccc4)n3)c2c1 (stereo not drawn)
RP-LC retention time: 992 s

COc1ccc(-c2nc3ncccn3c2Nc2ccc(C)c(C)c2)cc1
RP-LC retention time: 784 s

CCOC(=O)C1CCN(C(=O)CCC2CCN(c3cc(NC4CC4)ncn3)CC2)CC1
RP-LC retention time: 586 s

CC(C)n1cnnc1CC1CN(C(=O)Nc2ccccc2F)C1
RP-LC retention time: 608 s

COc1ccc2c(c1)C1(CCN(S(=O)(=O)c3ccc(F)c(F)c3)C1)C(=O)N2 (stereo not drawn)
RP-LC retention time: 837 s

O=C(NCCCN1CCCCC1)c1cc2n(n1)CCCN(Cc1ccccc1)C2=O
RP-LC retention time: 569 s

Cn1c(=O)c2c(ncn2CC(=O)N2CCCn3nc(-c4cccc(F)c4)cc3C2)n(C)c1=O
RP-LC retention time: 677 s

COCCN1C(=O)c2ccc(-c3ccco3)n2CC1(C)C(=O)NCc1ccccc1 (stereo not drawn)
RP-LC retention time: 814 s

COCCNC(=O)C1CCCN(c2cc(=O)n(C)c(=O)n2C)C1 (stereo not drawn)
RP-LC retention time: 567 s

COC[C@@H]1CN(S(=O)(=O)c2cccnc2)C[C@H]1c1ccncc1
RP-LC retention time: 652 s

COc1cc(C)c(Cl)cc1S(=O)(=O)Nc1ccc(-c2cn3ccc(C)nc3n2)cc1
RP-LC retention time: 700 s

CC(C)n1cnc2cc(CNC(=O)c3c(F)cccc3Cl)ccc21
RP-LC retention time: 617 s

O=C(c1cccc(OC(F)(F)F)c1)N1CCN(c2cc(-c3cccs3)[nH]n2)CC1
RP-LC retention time: 828 s

COC(=O)c1ccc(Cl)cc1NC(=O)c1cc2ccccc2o1
RP-LC retention time: 1280 s

CC1(C)C(=O)N(CCN2CCC(C(=O)c3ccc(F)cc3)CC2)c2ccccc21
RP-LC retention time: 755 s

COc1ccc(Cl)cc1N1CC(c2nc(-c3ccccc3)no2)CC1=O (stereo not drawn)
RP-LC retention time: 973 s

CCOc1ccc(-c2cn3ccn(-c4ccc(C)c(C)c4)c(=O)c3n2)cc1
RP-LC retention time: 949 s

COc1ccc(-c2nn3c(N4CCN(c5ccccn5)CC4)cc(C)nc3c2C)cc1OC
RP-LC retention time: 606 s

Cc1cc2c(=O)n(CC(=O)NCc3ccc(F)cc3Cl)ccc2s1
RP-LC retention time: 814 s

Cc1cc(C)c2c(N3CCCC3)nc(C(=O)NCc3ccc(C)o3)nc2n1
RP-LC retention time: 577 s

COc1ccc(CNC(=O)Nc2ccc(CC(=O)NCC(F)(F)F)cc2)cc1
RP-LC retention time: 706 s

Cc1cc(=O)n2c3ccccc3n(CC(O)CN3CCN(c4ccccc4)CC3)c2c1C#N (stereo not drawn)
RP-LC retention time: 670 s

O=C(Cc1noc2ccccc12)Nc1cccc2nsnc12
RP-LC retention time: 814 s

CCc1nn2c(CNC(=O)c3ccc(OC)cc3)c(-c3ccccc3)nc2s1
RP-LC retention time: 881 s

Cn1nc(C(F)(F)F)cc1C(=O)N1CCCC1c1cccc(F)c1 (stereo not drawn)
RP-LC retention time: 976 s

O=C(NCCN1CCOCC1)c1cccc(Nc2c(-c3ccccc3)nc3cnccn23)c1
RP-LC retention time: 589 s

C=CCNC(=O)C1CCCN(C(=O)Nc2ccc(NC(=O)Nc3ccccc3)cc2)C1 (stereo not drawn)
RP-LC retention time: 707 s

O=C(NCCC1=CCCCC1)C1CCN(C(=O)c2ncn3c2COC(c2ccc(F)cc2)C3)CC1 (stereo not drawn)
RP-LC retention time: 849 s

CC(C)(C)c1ccc(S(=O)(=O)Nc2cccc(C(=O)O)c2)cc1
RP-LC retention time: 810 s

COc1ccc(Cl)cc1NS(=O)(=O)c1cc(-c2nc(C(C)(C)C)cs2)cs1
RP-LC retention time: 1350 s

CCS(=O)(=O)N1CCc2ccc(NC(=O)COc3ccc(Cl)cc3Cl)cc2C1
RP-LC retention time: 964 s

Cc1nc(C(=O)Nc2ccc(F)cc2Cl)c(C)o1
RP-LC retention time: 1040 s

O=C(NCc1ccc(Br)cc1)C1CCN(c2cncnc2N2CCCC2)CC1
RP-LC retention time: 704 s

COc1ccc(-c2noc(C3CCCN3C(=O)Nc3ccccc3OC)n2)cc1 (stereo not drawn)
RP-LC retention time: 826 s

O=C(Nc1ccccc1Br)N1CCc2nc[nH]c2C1
RP-LC retention time: 566 s

CC(C)(C)c1ccc(OCC(O)CN)cc1 (stereo not drawn)
RP-LC retention time: 585 s

CCN(CC)C(=O)Cn1ccc2ccc(-c3nnc(C)o3)cc21
RP-LC retention time: 718 s

Cn1c(=O)n(C)c2cc(CNCCC3=CCCCC3)ccc21
RP-LC retention time: 600 s

O=C(NCc1ccc(F)cc1)c1cc(-c2ccc(F)cc2)ns1
RP-LC retention time: 1030 s

CC(=O)Nc1nsc(N2CCC(C(=O)N3CCN(c4cccc(C)c4C)CC3)CC2)n1
RP-LC retention time: 806 s

O=C(O)c1nnn(-c2cccc(Br)c2)c1C(F)(F)F
RP-LC retention time: 836 s

O=C(NCc1nc2ccccc2n1CCCCOc1ccccc1Cl)c1ccco1
RP-LC retention time: 660 s

CCc1ccc2c(c1)cc(S(=O)(=O)c1ccccc1)c(=O)n2CC(=O)NCc1ccc(F)cc1
RP-LC retention time: 971 s

CCCCS(=O)(=O)N1CCC2(CC1)NCCCN=C2Nc1cccc(F)c1
RP-LC retention time: 677 s

COc1ccccc1-c1nnc(-c2ccc(OC)c(S(=O)(=O)N3CCCC3)c2)o1
RP-LC retention time: 830 s

CCOc1ccccc1NC(=O)Cn1c(=O)n(-c2ccc(F)cc2)c(=O)c2c1cc(C)n2C
RP-LC retention time: 933 s

CCOc1ccc(-n2ccn3cc(-c4ccc(C)cc4C)nc3c2=O)cc1
RP-LC retention time: 942 s

Cc1nnc(-c2ccc3ccn(CC(=O)Nc4ccc(F)c(Cl)c4)c3c2)o1
RP-LC retention time: 861 s

CN1CCCc2cc(C(CNC(=O)C(=O)NC3CCCCC3)N(C)C)ccc21 (stereo not drawn)
RP-LC retention time: 598 s

O=c1c(O[C@@H]2O[C@H](CO)[C@H](O)[C@H](O)[C@H]2O)c(-c2ccc(O)c(O)c2)oc2cc(O)cc(O)c12
RP-LC retention time: 656 s

CCOC(=O)C1=C(N)Oc2cc(C)n(CCN(C)C)c(=O)c2C1c1ccccc1 (stereo not drawn)
RP-LC retention time: 572 s

CC(O)(CCc1ccccc1)CNC(=O)C(=O)NCCC1=CCCCC1 (stereo not drawn)
RP-LC retention time: 936 s

O=C1Nc2ccccc2SC1C(=O)N1CCC(C(=O)N2CCN(c3ccccn3)CC2)CC1 (stereo not drawn)
RP-LC retention time: 596 s

COCCn1ccc2nc(C)c(C(=O)N3CCN(c4ncccn4)CC3)cc2c1=O
RP-LC retention time: 609 s

Cc1nc(N2CCOCC2)cc(N2CCN(C(=O)c3cccs3)CC2)n1
RP-LC retention time: 607 s

Cc1cccc(N2CCN(C(=O)c3cn(-c4ccc(C#N)cc4)cn3)CC2)c1
RP-LC retention time: 759 s

CCN1C(=O)COc2ccc(-c3csc(NC(=O)c4cccc(Br)c4)n3)cc21
RP-LC retention time: 1100 s

CCCCOc1ccc(NC(=O)NCCN2CCN(S(C)(=O)=O)CC2)cc1
RP-LC retention time: 600 s

COc1ccccc1C(=O)N1CCN(c2cnn3c(C)nnc3c2)CC1
RP-LC retention time: 601 s

Cn1cccc1C(=O)NCCn1c(=O)n(Cc2ccccc2)c2cccnc21
RP-LC retention time: 767 s

O=C(C1CC1)N1CCc2sc(S(=O)(=O)NCc3ccc(F)cc3)cc2C1
RP-LC retention time: 805 s

O=C(CN1CCN(CC(=O)c2cccs2)CC1)Nc1cc(C(F)(F)F)ccc1Cl
RP-LC retention time: 625 s

COc1cc(=O)n2c(c1C(=O)NC1CCCCCC1)CCCC2
RP-LC retention time: 694 s

Cc1ccc(CNC(=O)C2(C)CCCN(C(=O)Nc3cccc(Br)c3)C2)cc1 (stereo not drawn)
RP-LC retention time: 1070 s

CCn1cc(S(=O)(=O)N2CCCC(c3nnnn3-c3ccccc3)C2)cn1 (stereo not drawn)
RP-LC retention time: 807 s
